≈ marks a conversion by molar mass, not a printed value.
Legend:
[1] = system: HBV replication in HepG2.2.15 cells; assay: Anti-HBV activity in vitro in HepG2.2.15 cells (extracellular HBV DNA by qPCR); type: cell-based; conditions: Hepatitis B virus, HepG2.2.15, Anti-HBV activity in HepG2.2.15 cells; read-out: EC50
Summary of the method: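 EC50 is derived from qPCR of extracellular viral DNA in culture supernatant after 5-day compound exposure. Cells (HepG2.2.15, stably carrying the HBV genome) were plated and incubated overnight at 37 °C before half-log dilution series were added at 0.5% final DMSO.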

[2] = Human microsomal clearance assay; type: in vitro ADME; conditions: human, 1 μM, pH 7.4
Summary of the method: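 Liver microsomes (0.5 mg/mL protein) were incubated with 1 μM compound at 37 °C, pH 7.4 phosphate, with an NADPH-regenerating system. Samples at 0-30 min were quenched and measured by LC-MS/MS for parent loss. No-NADPH controls were included.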

[3] = Lyophilisation solubility assay (Lysa); type: physicochemical; conditions: pH 6.5, aqueous buffer, thermodynamic from solid
Experimental: The aqueous solubility is an important physico-chemical property that plays a significant role in various physical and biological processes. It is desirable to have good solubility which enables good permeability and gastric and intestinal absorption, linear dose proportionality, less PK variability, and easy formulation for PD/PK studies. […] Lyophilisation solubility assay (Lysa) is a well adopted high throughput assay to measure compound solubility in industry.
Samples are prepared in duplicate from 10 mM DMSO stock solutions. After evaporation of DMSO with a centrifugal vacuum evaporator, the residue is solved in 0.05 M phosphate buffer (pH 6.5), stirred for one hour and then shook for two hours. After one night, the solution is filtered using a microtiter filter plate and then the filtrate and its 1/10 dilution are then analyzed by direct UV measurement or by HPLC-UV. In addition a four-point calibration curve is prepared from the 10 mM stock solutions and used for the solubility determination of the compounds. The results are in μg/ml. In case the percentage of sample measured in solution after evaporation divided by the calculated maximum of sample amount is bigger than 80% the solubility is reported as bigger than this value.

Structure (SMILES)	EC50 [1] [µM]	CLh [2] [mL/min/kg]	solubility thermodynamic [3] [µg/mL]
CCOC(=O)C1=C(CN2C3COCC2C(OCC(=O)O)C3)NC(c2nccs2)=N[C@H]1c1ccc(F)cc1Br (mixture of isomers) [Example 50, 2-[[8-[[(4R)-4-(2-bromo-4-fluoro-phenyl)-5-ethoxycarbonyl-2-thiazol-2-yl-1,4-dihydropyrimidin-6-yl]methyl]-3-oxa-8-azabicyclo[3.2.1]octan-6-yl]oxy]acetic acid]	0.0241	1.4	> 724
COC(=O)C1=C(CN2C3COCC2C(C(=O)O)C3)NC(c2nccs2)=N[C@H]1c1ccc(F)cc1Cl (stereo partly drawn) [Example 6, 8-[(R)-6-(2-Chloro-4-fluoro-phenyl)-5-methoxycarbonyl-2-thiazol-2-yl-3,6-dihydro-pyrimidin-4-ylmethyl]-3-oxa-8-aza-bicyclo[3.2.1]octane-6-carboxylic acid]	0.032	0.5	> 665
COC(=O)C1=C(CN2[C@@H]3COC[C@H]2C[C@@H](CC(=O)O)C3)NC(c2nccs2)=N[C@H]1c1cccc(F)c1Cl [Example 55, 2-[(1R,5)-9-[[(4R)-4-(2-chloro-3-fluoro-phenyl)-5-methoxycarbonyl-2-thiazol-2-yl-1,4-dihydropyrimidin-6-yl]methyl]-3-oxa-9-azabicyclo[3.3.1]nonan-7-yl]acetic acid]	0.0223	0	505 (≈ 920 µM)
COC(=O)C1=C(CN2[C@H]3COC[C@@H]2[C@@H](F)[C@H](CC(=O)O)C3)NC(c2nccs2)=N[C@H]1c1cccc(F)c1Cl [Example 101, 2-[(1R,5R,6S,7S)-9-[[(4R)-4-(2-chloro-3-fluoro-phenyl)-5-methoxycarbonyl-2-thiazol-2-yl-1,4-dihydropyrimidin-6-yl]methyl]-6-fluoro-3-oxa-9-azabicyclo[3.3.1]nonan-7-yl]acetic acid]	0.024	0	580 (≈ 1020 µM)
COC(=O)C1=C(CN2[C@@H]3COC[C@H]2CC(OCC(=O)O)C3)NC(c2nccs2)=N[C@H]1c1ccc(F)cc1Cl (stereo partly drawn) [Example 46, 2-[[(1R,5S)-9-[[(4R)-4-(2-chloro-4-fluoro-phenyl)-5-methoxycarbonyl-2-thiazol-2-yl-1,4-dihydropyrimidin-6-yl]methyl]-3-oxa-9-azabicyclo[3.3.1]nonan-7-yl]oxy]acetic acid]	0.0866	4.0	> 685
COC(=O)C1=C(CN2C3COCC2CN(C(=O)CO)C3)NC(c2nccs2)=N[C@H]1c1ccc(F)cc1Br [Example 53, Methyl (4R)-4-(2-bromo-4-fluoro-phenyl)-6-[[7-(2-hydroxyacetyl)-3-oxa-7,9-diazabicyclo[3.3.1]nonan-9-yl]methyl]-2-thiazol-2-yl-1,4-dihydropyrimidine-5-carboxylate]	0.0168	7.0	163 (≈ 274 µM)
CCOC(=O)C1=C(CN2[C@@H]3COC[C@H]2C[C@H](CC(=O)O)C3)NC(c2nccs2)=N[C@H]1c1cccc(F)c1F [Example 75, Exo-2-[(1S,5R)-9-[[(4R)-4-(2,3-difluorophenyl)-5-ethoxycarbonyl-2-thiazol-2-yl-1,4-dihydropyrimidin-6-yl]methyl]-3-oxa-9-azabicyclo[3.3.1]nonan-7-yl]acetic acid]	0.0291	1.0	> 656
COC(=O)C1=C(CN2C3COCC2CC(C(=O)O)C3)NC(c2nccs2)=N[C@H]1c1ccc(F)cc1Cl (stereo partly drawn) [Example 1, 9-[[(4R)-4-(2-chloro-4-fluoro-phenyl)-5-methoxycarbonyl-2-thiazol-2-yl-1,4-dihydropyrimidin-6-yl]methyl]-3-oxa-9-azabicyclo[3.3.1]nonane-7-carboxylic acid]	0.059	3.0	540 (≈ 1010 µM)
COC(=O)C1=C(CN2[C@@H]3C[C@H](CC(=O)O)C[C@H]2C(F)(F)C3)NC(c2nccs2)=N[C@H]1c1ccc(F)c(F)c1 [Example 114, 2-[(1R,3S,5S)-8-[[(4S)-4-(3,4-difluorophenyl)-5-methoxycarbonyl-2-thiazol-2-yl-1,4-dihydropyrimidin-6-yl]methyl]-6,6-difluoro-8-azabicyclo[3.2.1]octan-3-yl]acetic acid]	0.0063	1.2	224 (≈ 405 µM)
COC(=O)C1=C(CN2[C@H]3C[C@@H](CC(=O)O)C[C@@H]2C(F)(F)C3)NC(c2nccs2)=N[C@H]1c1ccc(F)c(F)c1 [Example 115, 2-[(1S,3R,5R)-8-[[(4S)-4-(3,4-difluoro-phenyl)-5-methoxycarbonyl-2-thiazol-2-yl-1,4-dihydropyrimidin-6-yl]methyl]-6,6-difluoro-8-azabicyclo[3.2.1]octan-3-yl]acetic acid]	0.163	4.6	128 (≈ 232 µM)
COC(=O)C1=C(CN2C3COCC2CC(C(=O)O)C3)NC(c2nccs2)=N[C@H]1c1ccc(F)cc1Br (stereo partly drawn) [Example 5, 9-[(R)-6-(2-Bromo-4-fluoro-phenyl)-5-methoxycarbonyl-2-thiazol-2-yl-3,6-dihydro-pyrimidin-4-ylmethyl]-3-oxa-9-aza-bicyclo[3.3.1]nonane-7-carboxylic acid]	0.021	0	> 660
COC(=O)C1=C(CN2C3COCC2CC(CC(=O)O)C3)NC(c2nccs2)=N[C@H]1c1ccc(Cl)c(F)c1 (stereo partly drawn) [Example 136, Endo-2-[9-[[(4S)-4-(4-chloro-3-fluoro-phenyl)-5-methoxycarbonyl-2-thiazol-2-yl-1,4-dihydropyrimidin-6-yl]methyl]-3-oxa-9-azabicyclo[3.3.1]nonan-7-yl]acetic acid]	0.102	5.5	485 (≈ 883 µM)
CCOC(=O)C1=C(CN2[C@H]3COC[C@@H]2[C@@H](F)[C@H](CC(=O)O)C3)NC(c2nccs2)=N[C@H]1c1ccccc1Cl [Example 103, 2-[(1R,5R,6S,7S)-9-[[(4R)-4-(2-chlorophenyl)-5-ethoxycarbonyl-2-thiazol-2-yl-1,4-dihydropyrimidin-6-yl]methyl]-6-fluoro-3-oxa-9-azabicyclo[3.3.1]nonan-7-yl]acetic acid]	0.274	0	345 (≈ 613 µM)
COC(=O)C1=C(CN2[C@@H]3C[C@H](CC(=O)O)C[C@H]2C(F)(F)C3)NC(c2nccs2)=N[C@H]1c1ccc(F)cc1Cl [Example 86, 2-[(1R,3S,5S)-8-[[(4R)-4-(2-chloro-4-fluoro-phenyl)-5-methoxycarbonyl-2-thiazol-2-yl-1,4-dihydropyrimidin-6-yl]methyl]-6,6-difluoro-8-azabicyclo[3.2.1]octan-3-yl]acetic acid]	0.002	0	149 (≈ 262 µM)
COC(=O)C1=C(CN2C3COCC2CC(CC(=O)O)C3)NC(c2nccs2)=N[C@H]1c1ccccc1Br (stereo partly drawn) [Example 134, Endo-2-[9-[[(4R)-4-(2-bromophenyl)-5-methoxycarbonyl-2-thiazol-2-yl-1,4-dihydropyrimidin-6-yl]methyl]-3-oxa-9-azabicyclo[3.3.1]nonan-7-yl]acetic acid]	0.021	1.7	> 695
COC(=O)C1=C(CN2[C@@H]3CC[C@@]2(C(=O)O)CC3(F)F)NC(c2nccs2)=N[C@H]1c1ccc(F)cc1Cl [Example 149, (1R,4S)-7-[[(4R)-4-(2-chloro-4-fluoro-phenyl)-5-methoxycarbonyl-2-thiazol-2-yl-1,4-dihydropyrimidin-6-yl]methyl]-2,2-difluoro-7-azabicyclo[2.2.1]heptane-4-carboxylic acid]	0.004	3.4	> 665
COC(=O)C1=C(CN2C3COCC2CC(C(=O)O)C3)NC(c2nc(C)cs2)=N[C@H]1c1ccc(F)cc1Cl (stereo partly drawn) [Example 2, 9-[(R)-6-(2-Chloro-4-fluoro-phenyl)-5-methoxycarbonyl-2-(4-methyl-thiazol-2-yl)-3,6-dihydro-pyrimidin-4-ylmethyl]-3-oxa-9-aza-bicyclo[3.3.1]nonane-7-carboxylic acid]	0.114	3.2	450 (≈ 820 µM)
COC(=O)C1=C(CN2C3COCC2CC(N)(C(=O)O)C3)NC(c2nccs2)=N[C@H]1c1ccc(F)cc1Cl (stereo partly drawn) [Example 139, 7-amino-9-[[(4R)-4-(2-chloro-4-fluoro-phenyl)-5-methoxycarbonyl-2-thiazol-2-yl-1,4-dihydropyrimidin-6-yl]methyl]-3-oxa-9-azabicyclo[3.3.1]nonane-7-carboxylic acid]	0.172	5.1	> 610
